Data: patent EP2876156A1 (COMMISSARIAT A L'ENERGIE ATOMIQUE ET AUX ENERGIES …, priority 2013, dated 2015)
Like-named read-outs stand apart in the source and are kept apart here.

Assays:
Assay type in all cases: biochemical
ENZ1 SEQ ID N°1 = biological target: T1, ENZ1 SEQ ID N°1 (Catenulispora acidiphila, UniProt C7QJ42); assay: Substrate selectivity screening of hydroxylase (conversion by HPLC after Fmoc-Cl derivatization)
T1 construct: His6 (hexahistidine, inserted after the initial methionine) (N); made in house; host or cells: E. coli BL21(DE3) plysE
T1 sequence (C7QJ42 1-358): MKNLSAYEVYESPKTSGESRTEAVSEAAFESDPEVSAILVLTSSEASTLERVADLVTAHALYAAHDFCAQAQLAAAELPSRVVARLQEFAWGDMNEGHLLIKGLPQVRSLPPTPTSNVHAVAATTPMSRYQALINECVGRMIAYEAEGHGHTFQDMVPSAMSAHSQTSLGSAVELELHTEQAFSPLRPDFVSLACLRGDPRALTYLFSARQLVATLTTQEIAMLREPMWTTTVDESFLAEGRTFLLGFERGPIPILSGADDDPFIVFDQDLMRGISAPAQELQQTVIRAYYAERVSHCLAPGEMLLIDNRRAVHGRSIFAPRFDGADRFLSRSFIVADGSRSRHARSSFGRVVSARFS
Method: (§1) Enzymatic reaction medium (0.2 µmole, leq.), borate buffer 0,2M pH 7.7 (80 µL) and Fmoc-Cl solution7.5 mM in acetone (100 µL, 0.75 µmole, 3.75 eq) were hand shaked in a closed 1.50 mL eppendorf for one minute. The aqueous layer was extracted with petroleum ether (3*1 mL) to eliminate excess of Fmoc-Cl. 70 µL of the aqueous phase were withdrawn, diluted with 70 µL of acetonitrile and injected into the HPLC. For substrates with two amine functions, 100 µL of Fmoc-Cl solution 15 mM were used.
(§2) Conditions for HPLC analysis: Atlantis® T3 (3 µm 4.5*150 mm) at 35°C with the gradient 50-86% eluent B (MeCN + 0.1% TFA) and eluent A (H2O + 0.1% TFA) in 20 min at 1 mL/min.
(§3) Enzymes (0.08 mg/mL) were screened against substrates (molar ratio α-ketoglutarate/substrate 15/10) in Hepes buffer 50 mM pH 7,5, with Mohr's salt at 1mM and without sodium ascorbate, at room temperature for three hours. The potential conversions of the substrates were determined by HPLC after Fmoc-Cl derivatization as section III here above.

ENZ4 SEQ ID NO:4 = biological target: T2, ENZ4 SEQ ID NO:4 (Catenulispora acidiphila, UniProt C7Q942); assay: as above
T2 construct: His6 (hexahistidine, inserted after the initial methionine) (N); made in house; host or cells: E. coli BL21(DE3) plysE
T2 sequence (C7Q942 1-343): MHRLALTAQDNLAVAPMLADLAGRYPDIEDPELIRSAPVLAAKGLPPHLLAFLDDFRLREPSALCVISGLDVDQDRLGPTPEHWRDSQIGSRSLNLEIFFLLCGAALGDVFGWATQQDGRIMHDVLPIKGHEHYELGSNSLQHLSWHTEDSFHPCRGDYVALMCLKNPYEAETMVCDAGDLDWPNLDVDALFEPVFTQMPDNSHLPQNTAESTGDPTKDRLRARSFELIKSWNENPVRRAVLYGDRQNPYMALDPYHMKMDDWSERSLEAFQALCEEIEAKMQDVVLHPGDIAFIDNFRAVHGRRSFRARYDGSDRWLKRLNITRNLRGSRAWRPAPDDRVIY
Method: as §1, §2, §3

ENZ2 SEQ ID NO:2 = biological target: T3, ENZ2 SEQ ID NO:2 (Flavobacterium johnsoniae, UniProt A5FF23)
T3 construct: His6 (hexahistidine, inserted after the initial methionine) (N); made in house; host or cells: E. coli BL21(DE3) plysE
T3 sequence (A5FF23 1-370): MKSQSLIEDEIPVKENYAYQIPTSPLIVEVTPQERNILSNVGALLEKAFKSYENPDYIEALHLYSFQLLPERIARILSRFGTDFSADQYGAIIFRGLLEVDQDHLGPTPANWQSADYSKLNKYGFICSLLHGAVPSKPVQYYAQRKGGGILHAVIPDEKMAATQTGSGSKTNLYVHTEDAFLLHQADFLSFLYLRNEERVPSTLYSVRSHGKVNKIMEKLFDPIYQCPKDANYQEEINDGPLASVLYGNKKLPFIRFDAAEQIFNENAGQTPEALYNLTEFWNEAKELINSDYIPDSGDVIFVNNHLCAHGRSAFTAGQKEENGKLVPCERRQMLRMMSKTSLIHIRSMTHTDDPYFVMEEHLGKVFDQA
Method: as §1, §2, §3

ENZ3 SEQ ID NO:3 = biological target: T4, ENZ3 SEQ ID NO:3 (Chitinophaga pinensis, UniProt C7PLM6)
T4 construct: His6 (hexahistidine, inserted after the initial methionine) (N); made in house; host or cells: E. coli BL21(DE3) plysE
T4 sequence (C7PLM6 1-382): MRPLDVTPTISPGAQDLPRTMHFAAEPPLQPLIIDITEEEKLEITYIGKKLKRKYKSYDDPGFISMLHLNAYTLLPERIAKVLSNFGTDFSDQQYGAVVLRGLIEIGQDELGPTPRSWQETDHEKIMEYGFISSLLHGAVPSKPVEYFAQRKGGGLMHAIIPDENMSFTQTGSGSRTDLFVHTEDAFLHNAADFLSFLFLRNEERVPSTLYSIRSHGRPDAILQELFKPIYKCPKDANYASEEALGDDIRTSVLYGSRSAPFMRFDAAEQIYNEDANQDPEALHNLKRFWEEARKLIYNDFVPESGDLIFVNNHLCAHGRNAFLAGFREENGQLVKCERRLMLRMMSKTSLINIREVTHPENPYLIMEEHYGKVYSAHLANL
Method: as §1, §2, §3

[1] = enzyme 0.08 mg/mL, molar ratio α-ketoglutarate/substrate 15/10, Hepes buffer 50 mM pH 7,5, Mohr's salt 1mM, without sodium ascorbate, room temperature, three hours

Row | SMILES | potential conversions of the substrates, ENZ1 SEQ ID N°1 (ENZ1 SEQ ID N°1; [1]) | potential conversions of the substrates, ENZ4 SEQ ID NO:4 (ENZ4 SEQ ID NO:4; [1]) | potential conversions of the substrates, ENZ2 SEQ ID NO:2 (ENZ2 SEQ ID NO:2; [1]) | potential conversions of the substrates, ENZ3 SEQ ID NO:3 (ENZ3 SEQ ID NO:3; [1]) | potential conversions of the substrates, ENZ1 SEQ ID N°1 (ENZ1 SEQ ID N°1; pH 7) | potential conversions of the substrates, ENZ4 SEQ ID NO:4 (ENZ4 SEQ ID NO:4; pH 7) | potential conversions of the substrates, ENZ2 SEQ ID NO:2 (ENZ2 SEQ ID NO:2; pH 7) | potential conversions of the substrates, ENZ3 SEQ ID NO:3 (ENZ3 SEQ ID NO:3; pH 7)
1 | CC(=O)N[C@@H](CCCN)C(=O)O [Nα-acetyl-L-ornithine] | negative | negative | negative | negative | – | – | – | –
2 | NC(CCCC(=O)O)C(=O)O (stereo not shown) [2-aminoadipic acid] | negative | negative | negative | negative | – | – | – | –
3 | NC[C@H](O)CC[C@H](N)C(=O)O [(5R)- hydroxy-L-lysine] | positive | negative | positive | positive | – | – | – | –
4 | N=C(N)NCCC[C@@H](N)C(=O)O [D-arginine] | negative | negative | negative | negative | – | – | – | –
5 | NCCCC[C@H](NC(=O)[C@@H](N)CCCCN)C(=O)O [L-Lysil-L-lysine] | negative | negative | negative | negative | – | – | – | –
6 | COC(=O)[C@@H](N)CCCN [L-ornithine methyl ester] | negative | negative | negative | negative | – | – | – | –
7 | CC(=O)N[C@@H](CCCCN)C(=O)O [Nα-acetyl-L-lysine] | negative | negative | negative | negative | – | – | – | –
8 | CCCCCC(N)C(=O)O (stereo not shown) [2-aminoheptanoic acid] | negative | negative | negative | negative | – | – | – | –
9 | COC(=O)[C@@H](N)CCCNC(=N)N [L-arginine methyl ester] | negative | negative | negative | negative | – | – | – | –
10 | NCCCCN [Putrescine] | – | – | – | – | negative | negative | negative | negative
